Results on 1 compound are retold here after ChEMBL document CHEMBL1137207, “Solution structure of amyloid beta-peptide (25-35) in different media” (J Med Chem, 2004).

The nature of this data set: Retention time of the compound. Format: ADME.

Where “and” joins values, the source holds several entries; their conditions need not be identical. Equal values may be shown once. Where a SMILES comes first, the peptide text is derived from it.

Regarding `CC[C@H](C)[C@H](NC(=O)[C@H](C)NC(=O)CNC(=O)[C@H](CCCCN)NC(=O)[C@H](CC(N)=O)NC(=O)[C@H](CO)NC(=O)CN)C(=O)N[C@H](C(=O)NCC(=O)N[C@@H](CC(C)C)C(=O)N[C@@H](CCSC)C(=O)O)[C@@H](C)CC` (H-GSNKGAIIGLM-OH), the tR is 13.37 min and 10.93 min.
